Experimental findings from ChEMBL document CHEMBL2375339, “Synthesis and evaluation of 7,8-dehydrorutaecarpine derivatives as potential multifunctional agents for the treatment of Alzheimer's disease” (Eur J Med Chem, 2013) are described below.

Assay [1] is described as follows: Metal chelating activity of the compound assessed as formation of calcium complex at 20 uM after 30 mins by UV-vis spectrophotometric analysis. It counts as functional.
Assay [2] has as its target Acetylcholinesterase (Homo sapiens) (UniProt P22303). The assay can be described thus: Ratio of compound activity to curcumin activity for inhibition of acetylcholinesterase (unknown origin)-induced amyloid beta(1 to 42) aggregation.
Assay [3] shares this target. The assay can be described thus: Ratio of compound activity to tacrine activity for inhibition of acetylcholinesterase (unknown origin)-induced amyloid beta(1 to 42) aggregation.
A short description of assay [4]: Metal chelating activity of the compound assessed as formation of potassium complex at 20 uM after 30 mins by UV-vis spectrophotometric analysis. It counts as functional.
Assay [5] is described as follows: Metal chelating activity of the compound assessed as formation of sodium complex at 20 uM after 30 mins by UV-vis spectrophotometric analysis. It counts as functional.
Assay [6] in a line: Metal chelating activity of the compound assessed as formation of zinc complex at 20 uM after 30 mins by UV-vis spectrophotometric analysis. It counts as functional.
The nature of assay [7]: Metal chelating activity of the compound assessed as formation of magnesium complex at 20 uM after 30 mins by UV-vis spectrophotometric analysis. It counts as functional.
A short description of assay [8]: Metal chelating activity of the compound assessed as formation of iron complex at 20 uM after 30 mins by UV-vis spectrophotometric analysis. It counts as functional.
A short description of assay [9]: Metal chelating activity of the compound assessed as formation of copper complex at 20 uM after 30 mins by UV-vis spectrophotometric analysis. It counts as functional.
The nature of assay [10]: Metal chelating activity of the compound assessed as formation of copper complex at 20 uM by molar ratio method. It is filed as functional.
Assay [11] has as its target Acetylcholinesterase (Electrophorus electricus) (UniProt O42275). The assay can be described thus: Inhibition of electric eel acetylcholinesterase using acetylthiocholine as substrate up to 100 uM incubated for 15 mins followed by substrate addition measured for 2 mins by Ellman's method relative to control. (In general: DTNB colorimetry detects thiols as they appear.)

Assay [12] has the same target. The assay can be described thus: Ratio of tacrine IC50 to compound IC50 for electric eel acetylcholinesterase.
Assay [13] shares this target. The assay can be described thus: Mixed-type inhibition of electric eel AChE using acetylthiocholine as substrate at 0.125 to 2 nM after 15 mins by Lineweaver-Burk plot analysis.
A further assay addresses Cholinesterase (Equus caballus, UniProt P81908).
For a further assay, the target named is Acetylcholinesterase (Electrophorus electricus, UniProt O42275).
Sequence of Acetylcholinesterase (O42275 whole entry): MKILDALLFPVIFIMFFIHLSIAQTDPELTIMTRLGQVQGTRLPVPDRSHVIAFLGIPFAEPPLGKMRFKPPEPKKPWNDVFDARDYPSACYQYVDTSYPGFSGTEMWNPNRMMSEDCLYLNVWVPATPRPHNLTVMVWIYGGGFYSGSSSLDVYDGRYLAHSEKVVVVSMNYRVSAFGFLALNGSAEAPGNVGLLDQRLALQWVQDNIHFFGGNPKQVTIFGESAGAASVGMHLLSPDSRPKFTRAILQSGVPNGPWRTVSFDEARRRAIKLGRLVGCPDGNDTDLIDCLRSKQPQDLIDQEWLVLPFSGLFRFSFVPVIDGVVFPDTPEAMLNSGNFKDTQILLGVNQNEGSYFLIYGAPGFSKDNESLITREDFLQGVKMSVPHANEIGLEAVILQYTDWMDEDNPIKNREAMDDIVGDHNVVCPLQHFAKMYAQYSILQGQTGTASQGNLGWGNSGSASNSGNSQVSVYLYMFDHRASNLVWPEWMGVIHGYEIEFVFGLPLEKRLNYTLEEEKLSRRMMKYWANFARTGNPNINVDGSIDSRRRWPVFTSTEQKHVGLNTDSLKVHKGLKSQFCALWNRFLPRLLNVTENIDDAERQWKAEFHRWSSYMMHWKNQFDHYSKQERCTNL
The next assay in a line: cells. The note with it: Homo sapiens, SH-SY5Y, 48 h.

The source made the active and inactive calls. The calls are words filed in the database; no cut-off is given here.

Sequence of Acetylcholinesterase (Electrophorus electricus) (O42275 24-633 limits assumed): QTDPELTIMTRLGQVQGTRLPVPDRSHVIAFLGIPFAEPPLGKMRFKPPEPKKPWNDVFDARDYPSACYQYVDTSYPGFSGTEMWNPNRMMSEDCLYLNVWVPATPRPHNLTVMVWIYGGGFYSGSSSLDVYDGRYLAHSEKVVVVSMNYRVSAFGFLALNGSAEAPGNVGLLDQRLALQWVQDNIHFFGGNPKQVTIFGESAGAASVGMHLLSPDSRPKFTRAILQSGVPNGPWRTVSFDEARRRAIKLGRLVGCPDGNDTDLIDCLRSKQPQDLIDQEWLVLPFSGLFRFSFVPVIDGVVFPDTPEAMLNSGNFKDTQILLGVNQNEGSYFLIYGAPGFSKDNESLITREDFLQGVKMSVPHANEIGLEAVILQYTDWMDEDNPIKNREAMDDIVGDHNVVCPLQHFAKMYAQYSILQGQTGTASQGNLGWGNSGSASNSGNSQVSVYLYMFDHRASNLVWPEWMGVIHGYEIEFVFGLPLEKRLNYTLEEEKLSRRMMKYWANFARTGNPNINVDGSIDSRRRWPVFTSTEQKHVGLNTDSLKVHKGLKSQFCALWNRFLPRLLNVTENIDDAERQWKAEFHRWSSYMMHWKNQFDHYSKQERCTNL
Sequence of Acetylcholinesterase (Homo sapiens) (P22303 whole entry): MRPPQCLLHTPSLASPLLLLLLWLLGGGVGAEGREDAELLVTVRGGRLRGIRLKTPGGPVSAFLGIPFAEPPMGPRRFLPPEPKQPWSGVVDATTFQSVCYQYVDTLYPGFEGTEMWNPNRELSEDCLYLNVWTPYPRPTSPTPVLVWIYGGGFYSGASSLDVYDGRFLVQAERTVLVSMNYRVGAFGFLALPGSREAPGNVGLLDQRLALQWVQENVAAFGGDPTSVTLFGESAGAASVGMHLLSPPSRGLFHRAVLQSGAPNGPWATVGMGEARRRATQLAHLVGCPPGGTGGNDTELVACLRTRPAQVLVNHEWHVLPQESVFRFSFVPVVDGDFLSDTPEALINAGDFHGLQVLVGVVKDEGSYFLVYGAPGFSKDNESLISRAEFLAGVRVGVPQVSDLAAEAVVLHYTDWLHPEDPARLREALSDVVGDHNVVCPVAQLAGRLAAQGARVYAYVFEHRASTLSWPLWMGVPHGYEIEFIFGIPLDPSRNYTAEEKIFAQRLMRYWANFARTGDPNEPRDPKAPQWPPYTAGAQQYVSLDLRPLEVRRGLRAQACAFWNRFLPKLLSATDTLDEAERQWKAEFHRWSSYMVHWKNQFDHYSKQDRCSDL
Sequence of Cholinesterase (P81908 whole entry): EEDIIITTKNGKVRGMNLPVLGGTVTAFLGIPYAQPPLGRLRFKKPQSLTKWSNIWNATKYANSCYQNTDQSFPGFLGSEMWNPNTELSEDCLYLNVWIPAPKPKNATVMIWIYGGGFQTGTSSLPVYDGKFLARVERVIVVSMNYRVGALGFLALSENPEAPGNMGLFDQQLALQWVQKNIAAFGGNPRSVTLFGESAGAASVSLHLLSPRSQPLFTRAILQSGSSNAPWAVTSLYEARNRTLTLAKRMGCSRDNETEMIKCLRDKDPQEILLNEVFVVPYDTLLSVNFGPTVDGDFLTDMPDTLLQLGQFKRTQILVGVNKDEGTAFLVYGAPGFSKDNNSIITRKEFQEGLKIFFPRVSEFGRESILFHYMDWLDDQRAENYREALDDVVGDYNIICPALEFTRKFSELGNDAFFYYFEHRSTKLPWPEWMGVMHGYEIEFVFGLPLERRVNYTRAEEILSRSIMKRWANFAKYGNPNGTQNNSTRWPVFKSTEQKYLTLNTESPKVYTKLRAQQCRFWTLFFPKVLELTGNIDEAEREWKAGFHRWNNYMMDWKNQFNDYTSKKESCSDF
Description for cells: Cytotoxicity against human SH-SY5Y cells assessed as cell viability after 48 hrs by MTT assay

For `O=C(C[n+]1cccc(F)c1)Nc1ccc2nc3c4[nH]c5ccccc5c4ccn3c(=O)c2c1`, the outcome in assay [1], in assay [4], in assay [5] and in [7] was inactive. Also, the Ratio came out at 2.2 in assay [2] and 15.3 in assay [3]. Further, the result in [6], in assay [8], in assay [9] and in [10] was Active. Besides, the inhibition in assay [11] amounted to 20%. Further, the Ratio IC50 in assay [12] was 160. In addition, in assay [13], the inhibition entry was “Active”. For the same compound, the values for the half-inhibitory concentration (IC50) against Cholinesterase, at Acetylcholinesterase and in the assay “cells” were 1860 nM, 0.6 nM and greater than 100000 nM, respectively.

As usually defined, the inhibition is how much of the control response was suppressed. The IC50 is the point on the concentration scale where inhibition reaches its midpoint. A low value points to greater potency.
